Measurements published in patent US20230158102A1 (priority 2020, published 2023).
Where two headings read alike, the source gives them in different places.

Key:
[1] = system: HCoV-229E; format: cell-based
[2] = system: SARS-CoV-2; assay: SARS-CoV-2 replication in human stem cell-derived pneumocyte like cells; format: cell-based; settings: 10 nm plitidepsin for 1 hour before infection (4×10^4 pfu), 48 hour incubation
Method: Several in vitro experiments aimed at determining the effect of plitidepsin on SARS-CoV-2 were carried out and are disclosed herein. […] In another study, human stem cell-derived pneumocyte like cells were prophylactically exposed to 10 nm plitidepsin for 1 hour and then infected with SARS-CoV-2 (4×10^4 plaque forming units). After a 48 hour incubation period, both antiviral and cytotoxic plitidepsin effects were determined.

[3] = system: SARS-CoV-2; assay: Mouse model of adenovirus-mediated hACE2 infected with SARS-CoV-2; format: in vivo
[4] = system: SARS-CoV-2; assay: Transgenic K18-hACE2 mice infected with SARS-CoV-2; format: in vivo
[5] = system: THP-1 cells; assay: Proinflammatory cytokine secretion in stimulated THP-1 cells; format: cell-based; settings: THP-1 cells stimulated with pathogen-associated molecular patterns-mimicking compounds
Method: In vitro studies were performed using THP-1 cells, a spontaneously immortalised monocyte-like cell line derived from the peripheral blood of a childhood case of acute monocytic leukaemia, that is widely used for investigating monocyte structure and function.

[6] = system: CD45+ cells; assay: Ex vivo cytokine expression (IL 6, IL 10, TNFα) in LPS-B5 stimulated CD45+ cells from broncho-alveolar lavages of treated mice; settings: CD45+ cells from plitidepsin treated mice
Source text: An ex vivo study assessed the effect of plitidepsin on expression of the cytokines IL 6, IL 10, and TNFα in the lungs of mice.

[7] = system: SARS-CoV-2 (COVID-19); assay: Study APLICOV-PC (NCT04382066): efficacy in patients hospitalised for COVID-19; format: in vivo, human; settings: for Patients discharged from hospital by Day 8, (%): 192 h; for Patients discharged from hospital by Day 31, (%) / Patients requiring oxygen therapy at Day 31, (%): 744 h
[8] = Storage stability of plitidepsin vials and reconstituted solution; format: physicochemical
Method: Plitidepsin will be labelled with the study protocol code, the batch number, the content, the expiry date, the storage conditions, the name of the investigator and the sponsor. The study drug will be labelled in accordance with Annex 13 of the European Good Manufacturing Practices. Plitidepsin should be stored between 2° C. and 8° C. and the vials should be kept in the outer carton to protect them from light. The drug in these conditions is stable for 60 months.
After reconstitution of the 2 mg plitidepsin vial with 4 ml of the solution for reconstitution of macrogolglycerol ricinoleate/ethanol/water for injection, the reconstituted solution should be diluted and used immediately after preparation. If not used immediately, storage times and conditions until use are the responsibility of the user. […] If storage is required before administration, solutions should be stored refrigerated and protected from light and should be used within 24 hours after reconstitution.

[9] = system: Vero E6 cells; settings: Vero E6, absence of virus, 3 days
[10] = system: NFκB; settings: tumour cells, early in vitro studies; cited from earlier work
[11] = target: T1, eEF1A (Oryctolagus cuniculus, UniProt Q71V39); settings: 14C-plitidepsin, eEF1A purified from rabbit muscle; cited from earlier work
T1 construct: eEF1A purified from rabbit muscle; from tissue; host or cells: rabbit muscle

[12] = cancer patients, single-agent plitidepsin; cited from earlier work
[13] = in vitro; settings: African green monkey

T1 sequence (Q71V39 whole entry): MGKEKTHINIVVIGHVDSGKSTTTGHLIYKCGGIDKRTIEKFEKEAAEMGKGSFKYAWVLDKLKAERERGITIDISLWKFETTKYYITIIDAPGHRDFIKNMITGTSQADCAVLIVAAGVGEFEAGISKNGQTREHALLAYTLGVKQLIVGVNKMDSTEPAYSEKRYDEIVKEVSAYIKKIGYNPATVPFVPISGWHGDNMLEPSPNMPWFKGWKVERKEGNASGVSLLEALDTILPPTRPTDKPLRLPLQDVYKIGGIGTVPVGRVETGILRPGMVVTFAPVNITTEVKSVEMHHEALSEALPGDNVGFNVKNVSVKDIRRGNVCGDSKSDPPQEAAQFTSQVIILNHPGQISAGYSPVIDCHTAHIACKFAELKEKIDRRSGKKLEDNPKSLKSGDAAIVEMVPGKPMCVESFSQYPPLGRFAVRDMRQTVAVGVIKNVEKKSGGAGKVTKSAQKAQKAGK

CC[C@H](C)[C@H]1NC(=O)[C@@H](NC(=O)[C@@H](CC(C)C)N(C)C(=O)[C@@H]2CCCN2C(=O)C(C)=O)[C@@H](C)OC(=O)[C@H](Cc2ccc(OC)cc2)N(C)C(=O)[C@@H]2CCCN2C(=O)[C@H](CC(C)C)NC(=O)[C@@H](C)C(=O)[C@H](C(C)C)OC(=O)C[C@@H]1O [PLD, (−)-(3S,6R,7S,10R,11S,15S,17S,20S,25aS)-11-hydroxy-3-(4-methoxybenzyl)-2,6,17-trimethyl-15-(1-methylethyl)-7-[[(2R)-4-methyl-2-[methyl[[(2S)-1-(2-oxopropanoyl)pyrrolidin-2-yl]carbonyl]amino]pentanoyl]amino]-10-[(1S)-1-methylpropyl]-20-(2-methylpropyl)tetradecahydro-15H-pyrrolo[2,1-f]-[1,15,4,7,10,20]dioxatetrazacyclotricosine-1,4,8,13,16,18,21(17H)-heptone]
Concentration as low as which an antiviral effect was induced [1]: 0.5 nM | Replication of SARS-CoV-2 [2]: completely eliminated replication of SARS-CoV-2 | Antiviral effects in vivo [3]: potent antiviral effects in vivo | Antiviral effects in vivo [4]: potent antiviral effects in vivo | Secretion of proinflammatory cytokines [5]: significantly reduced the secretion of the proinflammatory cytokines | IL 6, IL 10 and TNFα production upon LPS-B5 stimulation compared with nonstimulated controls [6]: failed to show a marked increase in IL 6, IL 10, and TNFα | Mean time from baseline until undetectable viral load [7]: 11 days | Mortality from Day 1 to Day 31, (%) [7]: (4.5) % | Patients requiring ICU admission from Day 1 to Day 7, (%) [7]: (11.4) % | Patients requiring ICU admission from Day 1 to Day 15, (%) [7]: (13.6) % | Patients requiring ICU admission from Day 1 to Day 31, (%) [7]: (13.6) % | Patients requiring invasive mechanical ventilation and/or ICU admission from Day 1 to Day 7, (%) [7]: (11.4) % | Patients requiring invasive mechanical ventilation and/or ICU admission from Day 1 to Day 15, (%) [7]: (13.6) % | Patients requiring invasive mechanical ventilation and/or ICU admission from Day 1 to Day 31, (%) [7]: (13.6) % | Patients requiring noninvasive mechanical ventilation from Day 1 to Day 7, (%) [7]: (9.1) % | Patients requiring noninvasive mechanical ventilation from Day 1 to Day 15, (%) [7]: (11.4) % | Patients requiring noninvasive mechanical ventilation from Day 1 to Day 31, (%) [7]: (13.6) % | Mean time from baseline until undetectable viral load ([7]; 1.5 mg): 7 days | Mortality from Day 1 to Day 31, (%) ([7]; 1.5 mg): (7.1) % | Patients requiring ICU admission from Day 1 to Day 7, (%) ([7]; 1.5 mg): (14.3) % | Patients requiring ICU admission from Day 1 to Day 15, (%) ([7]; 1.5 mg): (14.3) % | Patients requiring ICU admission from Day 1 to Day 31, (%) ([7]; 1.5 mg): (14.3) % | Patients requiring invasive mechanical ventilation and/or ICU admission from Day 1 to Day 7, (%) ([7]; 1.5 mg): (14.3) % | Patients requiring invasive mechanical ventilation and/or ICU admission from Day 1 to Day 15, (%) ([7]; 1.5 mg): (14.3) % | Patients requiring invasive mechanical ventilation and/or ICU admission from Day 1 to Day 31, (%) ([7]; 1.5 mg): (14.3) % | Patients requiring noninvasive mechanical ventilation from Day 1 to Day 7, (%) ([7]; 1.5 mg): (21.4) % | Patients requiring noninvasive mechanical ventilation from Day 1 to Day 15, (%) ([7]; 1.5 mg): (21.4) % | Patients requiring noninvasive mechanical ventilation from Day 1 to Day 31, (%) ([7]; 1.5 mg): (21.4) % | Patients requiring oxygen therapy at Day 7, (%) ([7]; 1.5 mg, 168 h): (71.4) % | Patients discharged from hospital by Day 8, (%) ([7]; 1.5 mg): (42.9) % | Patients discharged from hospital by Day 15, (%) ([7]; 1.5 mg, 360 h): (78.6) % | Patients requiring oxygen therapy at Day 15, (%) ([7]; 1.5 mg, 360 h): (28.6) % | Patients discharged from hospital by Day 31, (%) ([7]; 1.5 mg): (92.9) % | Mean time from baseline until undetectable viral load ([7]; 2 mg): 13 days | Patients requiring ICU admission from Day 1 to Day 7, (%) ([7]; 2 mg): (6.7) % | Patients requiring ICU admission from Day 1 to Day 15, (%) ([7]; 2 mg): (6.7) % | Patients requiring ICU admission from Day 1 to Day 31, (%) ([7]; 2 mg): (6.7) % | Patients requiring invasive mechanical ventilation and/or ICU admission from Day 1 to Day 7, (%) ([7]; 2 mg): (6.7) % | Patients requiring invasive mechanical ventilation and/or ICU admission from Day 1 to Day 15, (%) ([7]; 2 mg): (6.7) % | Patients requiring invasive mechanical ventilation and/or ICU admission from Day 1 to Day 31, (%) ([7]; 2 mg): (6.7) % | Patients requiring noninvasive mechanical ventilation from Day 1 to Day 31, (%) ([7]; 2 mg): (6.7) % | Patients requiring oxygen therapy at Day 7, (%) ([7]; 2 mg, 168 h): (66.7) % | Patients discharged from hospital by Day 8, (%) ([7]; 2 mg): (60.0) % | Patients discharged from hospital by Day 15, (%) ([7]; 2 mg, 360 h): (93.3) % | Patients requiring oxygen therapy at Day 15, (%) ([7]; 2 mg, 360 h): (6.7) % | Patients discharged from hospital by Day 31, (%) ([7]; 2 mg): (93.3) % | Patients requiring oxygen therapy at Day 31, (%) ([7]; 2 mg): (13.3) % | Mean time from baseline until undetectable viral load ([7]; 2.5 mg): 12 days | Mortality from Day 1 to Day 31, (%) ([7]; 2.5 mg): (6.7) % | Patients requiring ICU admission from Day 1 to Day 7, (%) ([7]; 2.5 mg): (13.3) % | Patients requiring ICU admission from Day 1 to Day 15, (%) ([7]; 2.5 mg): (20.0) % | Patients requiring ICU admission from Day 1 to Day 31, (%) ([7]; 2.5 mg): (20.0) % | Patients requiring invasive mechanical ventilation and/or ICU admission from Day 1 to Day 7, (%) ([7]; 2.5 mg): (13.3) % | Patients requiring invasive mechanical ventilation and/or ICU admission from Day 1 to Day 15, (%) ([7]; 2.5 mg): (20.0) % | Patients requiring invasive mechanical ventilation and/or ICU admission from Day 1 to Day 31, (%) ([7]; 2.5 mg): (20.0) % | Patients requiring noninvasive mechanical ventilation from Day 1 to Day 7, (%) ([7]; 2.5 mg): (6.7) % | Patients requiring noninvasive mechanical ventilation from Day 1 to Day 15, (%) ([7]; 2.5 mg): (13.3) % | Patients requiring noninvasive mechanical ventilation from Day 1 to Day 31, (%) ([7]; 2.5 mg): (13.3) % | Patients requiring oxygen therapy at Day 7, (%) ([7]; 2.5 mg, 168 h): (73.3) % | Patients discharged from hospital by Day 8, (%) ([7]; 2.5 mg): (66.7) % | Patients discharged from hospital by Day 15, (%) ([7]; 2.5 mg, 360 h): (73.3) % | Patients requiring oxygen therapy at Day 15, (%) ([7]; 2.5 mg, 360 h): (26.7) % | Patients discharged from hospital by Day 31, (%) ([7]; 2.5 mg): (86.7) % | Patients requiring oxygen therapy at Day 31, (%) ([7]; 2.5 mg): (6.7) % | Mean reduction in viral load by Day 7 ([7]; 168 h): −3.1 log10 copies/mL | Patients requiring oxygen therapy at Day 7, (%) ([7]; 168 h): (70.5) % | Patients discharged from hospital by Day 8, (%) [7]: (56.8) % | Patients discharged from hospital by Day 15, (%) ([7]; 360 h): (81.8) % | Patients requiring oxygen therapy at Day 15, (%) ([7]; 360 h): (20.5) % | Patients with mild disease discharged by Day 15 ([7]; 360 h): 100% | Patients with moderate disease discharged by Day 15 ([7]; 360 h): 82% | Patients with severe disease discharged by Day 15 ([7]; 360 h): 57% | Reduction in baseline viral load by Day 15 ([7]; 360 h): −3.0 log | Patients discharged from hospital by Day 31, (%) [7]: (90.9) % | Patients requiring oxygen therapy at Day 31, (%) [7]: (6.8) % | Mean reduction in viral load by Day 15 ([7]; across dose cohorts): 4.5 log10 copies/mL | Stability of the drug on storage ([8]; between 2° C. and 8° C., vials in the outer carton protected from light): 60 months | Physical, chemical and microbiological stability of the reconstituted concentrated solution ([8]; original vial under indoor light at room temperature): 6 hours | Physical, chemical and microbiological stability of the reconstituted concentrated solution ([8]; refrigerated conditions (5° C.±3° C.)): 24 hours | Tolerability of treatment (1.5, 2.0 and 2.5 mg daily for 3 days, 45 patients): well tolerated | Prevalence of Grade ≥3 AEs (1.5-mg cohort): 33.3% | Prevalence of Grade ≥3 AEs (2.0-mg cohort): 20.0% | Prevalence of Grade ≥3 AEs (2.5-mg cohort): 40.0 | Events of special interest: Grade ≥3 ALT elevation (all cohorts): 1 case | Patients unable to complete plitidepsin treatment (all cohorts): 1 patient | Patients who experienced Grade ≥3 AEs (all cohorts (14/45)): 31% | Patients who experienced a treatment-related Grade ≥3 AE (all cohorts, 45 patients): 2 patients | Patients who experienced SAEs (dosed at 1.5 mg): 6 patients | Patients who experienced SAEs (dosed at 2.0 mg): 1 patients | Patients who experienced SAEs (dosed at 2.5 mg): 3 patients | Patients with a 2 grade increase in CPK (human, in vivo): 1 patient | Patients who experienced SAEs (total): 10 patients | Cytotoxic effects of the drug at concentrations inhibiting viral-induced cytopathic effects [9]: no cytotoxic effects of the drug were observed | Effect on NFκB [10]: induces down-regulation of NFκB | Binding affinity [11]: high affinity | Rate of dissociation [11]: low rate of dissociation | AE asthenia/fatigue [12]: 83% | AE constipation [12]: 29% | AE diarrhoea [12]: 31% | AE nausea [12]: 64% | AE pyrexia [12]: 28% | AE vomiting [12]: 38% | CC50 [13]: 178 to 431 nM
